Assay results as given in PMC9028219 (Frontiers in Nutrition, 2022).

Legend:
[1] = molecular target: T1, Dihydrofolate reductase (DHFR) (Homo sapiens, UniProt P00374); assay: DHFR activity assay in lysate of treated cells; settings: cell-based test system, higher tested concentration 100 μM
T1 construct: endogenous in cells; host or cells: FaDu, K562, A549
Procedure: (§1) Protein was estimated by nanodrop before being used for the enzyme assays.
In one set, ~10 μg of cell lysate was incubated with a reaction cocktail (2.3 mM DHFA, 0.11 mM β-NADPH in 50 mM potassium phosphate buffer, and pH 6.5), while another set was incubated in the reaction cocktail containing 0.1% bovine serum albumin (BSA) solution. The reaction mixture was mixed, and the kinetic study was performed at 340 nm for 5 min. The results were calculated using percentage inhibition concerning control ([31]). The ODC activity was determined by the modified method reported by Luqman et al. ([32]). Approximately 10 μg of cell lysate was added to the reaction cocktail (2.5 mM β-mercaptoethanol, 1.5 mM EDTA, 75 nM pyridoxal-phosphate, 3 mM L-ornithine hydrochloride in 150 mM potassium phosphate buffer, and pH 7.1). Approximately, 400 μl of 1 M perchloric acid was used to terminate the reaction, and NaOH (4N) was added to the supernatant. Further, 1-pentanol was added after centrifugation. Then, the upper organic phase was transferred to a microcentrifuge tube with 200 μl sodium borate, 200 μl TNBS, and 400 μl DMSO. Further, it was centrifuged, and 60 μl of supernatant was taken in plate, and absorbance was measured at 412 nm. The graph was plotted in the terms of percentage inhibition.

FaDu cells = assay: Mitochondrial membrane potential (Rhodamine 123); format: cell-based, human
Procedure: The cell cycle analysis was carried out by the protocol reported by Fatima et al. ([40]). The cell lines were fixed with 70% ethanol. Before analysis, fixed cells were washed at least two times with PBS and PI solution containing RNase A to stain the cells. The samples were run on a flow cytometer within 1 h. Treated FaDu cells were incubated with 10 μM of DCFH-DA dye for 30 min then fluorescence was measured at 485/530 nm of […]. For FACS analysis, treated cells were incubated with 10 μM of DCFH-DA dye for 30 min, and the samples were analyzed within 1 h ([41]). The protocol for the analysis of MMP was similar to that of DCFH-DA except for Rhodamine 123 dye ([41]). The experiment was also carried out as per the method reported in Annexin-V-FITC apoptosis detection kit I (BD Pharmingen^TM, Catalog No. 556547). For the assay, 1 × 10^6 cells were grown in 6 well plates and treatment was given 24 h. The next day, cells were washed with cold PBS, and the pellet was resuspended in 100 μl (1X binding) buffer and left for 15 min followed by incubation with a dual fluorescent dye (5 μl FITC and 5 μl PI) for 10 min. The cell suspension was maintained upto 500 μl from the 1X binding buffer. The stained cells were analyzed by flow cytometer within 1 h ([42]).

Cathepsin D (CATD) = molecular target: T2, Cathepsin D (CATD) (Homo sapiens, UniProt P07339); assay: CATD activity assay in cell lysate; format: cell-based
T2 construct: endogenous in cells; host or cells: FaDu, K562, A549
Procedure: as §1
The HYAL assay was performed by the standard reported protocol ([35]). Approximately 10 μg of cell lysate added in enzyme diluent buffer (77 mM sodium chloride, 20 mM sodium phosphate, 0.01% albumin, and pH 7.0 at 37°C). The reaction mixture was incubated for 45 min after adding HA (substrate). The mixture was distributed in three parts, each well of the plate containing 25 μl followed by the addition of 125 μl of diluent buffer (79 mM acetic acid, 24 mM sodium acetate, 0.1% albumin bovine, and pH 3.75). The absorbance was measured at 600 nm after 10 min incubation. The graph was shown in the terms of percentage inhibition. Hemoglobin was used as a substrate to determine CATD activity ([36]). Cell lysate (10 μg) was incubated with a reaction cocktail (2.5% of hemoglobin, deionised water, 400 mM citrate buffer, and pH 2.8) for 30 min at 37°C; the reaction was terminated by adding 5% TCA. Then, 200 μl of supernatant was taken in plate after centrifuge and absorbance were measured at 280 nm.

Lipoxygenase-5 (LOX-5) = Lipoxygenase-5 (LOX-5) (Homo sapiens, UniProt P09917); assay: LOX-5 activity assay in cell lysate
Procedure: Cyclooxygenase-2 (COX-2) activity was measured as reported by Kulmaczand Lands ([33]). The reaction cocktail consists of Tris-HCl buffer (100 mM and pH 8.0), EDTA (3 μM), hematin (15 μM), and cell lysate. After incubation, arachidonic acid (AA) and N,N,N′,N′-tetra methyl-p-phenylenediamine (TMPD) was added to 96 well plates to initiate the reaction. The reaction mixture was immediately auto mixed using the Multiscan Go of Thermo Scientific spectrophotometer, and absorbance was measured at 590 nm ([33]). The enzyme inhibition was calculated concerning control. […] Approximately 40 μM of AA was mixed to initiate the reaction, and the plate was kept for 4 min at room temperature. The reaction was terminated by adding an equal ratio of reagent 1 (4.5 mM FeSo4 in HCl) and reagent 2 (3% NH4SCN). The absorbance was taken at 480 nm using a spectrophotometer ([34]). The enzyme inhibition was compared concerning control.

WRL-68 = assay: Anti-proliferative activity (SRB, MTT, NRU assays); format: cell-based, human; settings: WRL-68, higher tested concentration 100 μM
Procedure: (§2) The cell lines used for the present study were K562 (erythroid leukemia), COLO-205 (colon carcinoma), FaDu (hypopharyngeal carcinoma), MCF-7 (breast ER+ve adenocarcinoma), WRL-68 (hepatocellular carcinoma), A549 (lung carcinoma), and HEK-293 (embryonic kidney). These cell lines were purchased from the National Center for Cell Sciences (NCCS), Pune, India, except FaDu, which Dr. Sarkar endowed from CSIR-Central Drug Research Institute, Lucknow, Uttar Pradesh, India.
(§3) The SRB assay was carried out by following the method reported by Skehan et al. ([27]) with a slight modification ([28]). In 96 well plates, approximately ~2 ×10^3 cells per well were seeded. […] Approximately 20% of TCA was added in treated plates to precipitate cellular proteins, followed by washing cells with tap water and adding 10 μl SRB dye (0.4%) in each well of the plate. Then, the plate was washed with 1% acetic acid to remove the unbound dye. The bound dye was dissolved in 200 μl tris base (10 mM). The absorbance was finally measured at 515 nm using a spectrophotometer (Multiskan^TM Go SkanIt Software, version 4.0, Thermo Fisher Scientific, Waltham, MA, USA).
(§4) The NRU assay was carried out by Babich and Borenfreund ([29]) method. Similar to the SRB assay, 5 μl NRU dye was added to the treated plate. Then, cells were washed with fixative solution after 3 h of incubation; further, the bound dye was solubilized in a dissolving solution. The absorbance was measured at 540 nm ([29]).
(§5) The MTT assay was performed following the protocol as Mosmann ([30]) determined. […] The next day, 10 μl (500 μg/ml) of MTT dye was added to each well of the plate and further incubated for 4 h. After that, the formazan crystal was dissolved in 100 μl DMSO and absorbance was measured at 570 nm. The SRB, NRU, and MTT assays were calculated using percentage cytotoxicity concerning control ([30]).

MCF-7 = assay: Anti-proliferative activity (SRB, MTT, NRU assays); format: cell-based, human; settings: MCF-7, higher tested concentration 100 μM
Procedure: as §2, §3, §4, §5

[2] = test system: HEK-293 (normal) cell line; assay: Anti-proliferative activity (SRB, MTT, NRU assays); format: cell-based, human
Procedure: as §2, §3, §4, §5

COLO-205 = assay: Anti-proliferative activity (SRB, MTT, NRU assays); format: cell-based, human; settings: COLO-205, higher tested concentration 100 μM
Procedure: as §2, §3, §4, §5

T2 sequence (P07339 65-412): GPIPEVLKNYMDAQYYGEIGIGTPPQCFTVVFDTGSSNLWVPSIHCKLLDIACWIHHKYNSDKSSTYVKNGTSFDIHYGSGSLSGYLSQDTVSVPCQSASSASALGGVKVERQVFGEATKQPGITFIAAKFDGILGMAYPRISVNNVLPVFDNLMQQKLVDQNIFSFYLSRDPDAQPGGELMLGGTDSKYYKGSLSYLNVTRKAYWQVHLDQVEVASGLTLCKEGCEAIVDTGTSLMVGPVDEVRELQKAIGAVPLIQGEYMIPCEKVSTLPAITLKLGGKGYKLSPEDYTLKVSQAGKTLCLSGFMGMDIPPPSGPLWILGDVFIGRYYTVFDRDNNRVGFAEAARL
Lipoxygenase-5 (LOX-5), sequence (P09917 whole entry): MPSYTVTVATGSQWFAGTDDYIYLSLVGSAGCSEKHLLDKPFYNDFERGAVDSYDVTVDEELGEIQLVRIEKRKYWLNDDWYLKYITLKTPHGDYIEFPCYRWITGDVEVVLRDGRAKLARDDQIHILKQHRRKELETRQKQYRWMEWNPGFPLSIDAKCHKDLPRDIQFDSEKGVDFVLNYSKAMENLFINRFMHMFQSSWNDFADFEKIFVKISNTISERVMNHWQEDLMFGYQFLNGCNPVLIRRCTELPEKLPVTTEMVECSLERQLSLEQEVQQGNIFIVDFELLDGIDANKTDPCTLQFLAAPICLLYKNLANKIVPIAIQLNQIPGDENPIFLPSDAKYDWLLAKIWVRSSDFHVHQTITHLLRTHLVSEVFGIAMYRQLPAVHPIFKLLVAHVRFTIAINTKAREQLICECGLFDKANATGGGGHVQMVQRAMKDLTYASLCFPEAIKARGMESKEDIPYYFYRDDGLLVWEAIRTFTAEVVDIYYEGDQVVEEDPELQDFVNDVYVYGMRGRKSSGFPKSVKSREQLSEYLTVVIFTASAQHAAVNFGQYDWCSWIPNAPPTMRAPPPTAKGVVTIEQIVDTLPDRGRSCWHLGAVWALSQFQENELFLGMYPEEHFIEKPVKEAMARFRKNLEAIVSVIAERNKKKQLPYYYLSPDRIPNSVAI
T1 sequence (P00374 whole entry): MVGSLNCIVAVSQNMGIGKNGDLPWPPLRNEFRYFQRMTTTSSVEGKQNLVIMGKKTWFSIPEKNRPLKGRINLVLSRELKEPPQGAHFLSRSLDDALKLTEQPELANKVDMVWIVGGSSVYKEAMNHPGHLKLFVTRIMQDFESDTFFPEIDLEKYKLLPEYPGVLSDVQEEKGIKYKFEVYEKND

`Cc1ccc(C(C)C)cc1O` [carvacrol, 5-isopropyl-2-methyl phenol] was tested, and the “suppression of DHFR enzyme action” value [1] was “up to 7%”, the mitochondrial membrane potential (FaDu cells) was “diminishes the membrane potential of the FaDu cell line at the tested concentrations” and the “suppression of CATD activity” value (Cathepsin D (CATD); A549) was 2 ± 0.52%. The “suppression of CATD activity” value (Cathepsin D (CATD); FaDu) was 18.48 ± 0.33%, the “suppression of CATD activity” value (Cathepsin D (CATD); K562) was 5 ± 0.94% and the “suppression of LOX-5 activity” value (Lipoxygenase-5 (LOX-5); A549) was under 50%. For the same compound, the “suppression of LOX-5 activity” value (Lipoxygenase-5 (LOX-5); K562) was under 50%, the reduction of proliferation (WRL-68) was “up to 24%” and the reduction of proliferation (MCF-7) was “up to 24%”. For the same compound, the cell growth inhibition [2] was “approximately 25%” and the reduction of proliferation (COLO-205) was “up to 24%”.
